Results as given in paper PMC9820167, “Design and Synthesis of Conformationally Flexible Scaffold as Bitopic Ligands for Potent D3-Selective Antagonists” (International Journal of Molecular Sciences, 2022).

Tests used:
Assay in all cases: PDSP binding screen
GABAA = conditions: HCl salts
Adrenergic alpha2B = target: T1, Adrenergic alpha2B (Homo sapiens, UniProt P18089)
T1 sequence (P18089 1-450): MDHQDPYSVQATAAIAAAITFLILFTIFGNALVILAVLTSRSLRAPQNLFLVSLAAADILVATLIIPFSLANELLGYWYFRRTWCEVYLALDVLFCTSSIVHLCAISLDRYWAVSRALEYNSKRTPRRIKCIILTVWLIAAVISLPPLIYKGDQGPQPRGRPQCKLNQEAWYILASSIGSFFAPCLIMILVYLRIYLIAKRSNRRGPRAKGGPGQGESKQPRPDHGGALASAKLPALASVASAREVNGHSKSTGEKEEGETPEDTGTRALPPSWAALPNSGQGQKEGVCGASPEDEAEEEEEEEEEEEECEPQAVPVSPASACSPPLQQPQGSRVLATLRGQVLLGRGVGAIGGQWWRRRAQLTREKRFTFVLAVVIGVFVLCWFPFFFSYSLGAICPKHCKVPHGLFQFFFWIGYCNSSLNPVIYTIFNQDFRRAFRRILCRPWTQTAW

Adrenergic alpha2A = target: T2, Adrenergic alpha2A (Homo sapiens, UniProt P08913)
T2 sequence (P08913 1-465): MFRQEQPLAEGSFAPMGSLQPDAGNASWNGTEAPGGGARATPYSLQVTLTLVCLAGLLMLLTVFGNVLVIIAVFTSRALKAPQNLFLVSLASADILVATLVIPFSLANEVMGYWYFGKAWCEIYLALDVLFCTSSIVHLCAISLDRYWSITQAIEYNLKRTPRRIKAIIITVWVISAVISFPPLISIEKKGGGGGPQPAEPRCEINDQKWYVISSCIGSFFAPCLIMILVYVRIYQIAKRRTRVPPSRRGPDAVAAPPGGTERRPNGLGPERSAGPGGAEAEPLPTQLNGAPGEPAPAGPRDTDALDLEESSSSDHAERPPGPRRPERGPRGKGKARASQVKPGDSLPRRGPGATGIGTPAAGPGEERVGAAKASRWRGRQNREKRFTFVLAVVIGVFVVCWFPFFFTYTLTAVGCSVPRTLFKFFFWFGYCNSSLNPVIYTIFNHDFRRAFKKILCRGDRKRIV

BZP Rat Brain Site = conditions: HCl salts
Muscarinic M3 = Muscarinic M3 (Homo sapiens, UniProt P20309); conditions: for inhibition at 10 µM: read-out: Ki (nM) or % inhibition at 10 µM: M3
Sequence of Muscarinic M3 (P20309 whole entry): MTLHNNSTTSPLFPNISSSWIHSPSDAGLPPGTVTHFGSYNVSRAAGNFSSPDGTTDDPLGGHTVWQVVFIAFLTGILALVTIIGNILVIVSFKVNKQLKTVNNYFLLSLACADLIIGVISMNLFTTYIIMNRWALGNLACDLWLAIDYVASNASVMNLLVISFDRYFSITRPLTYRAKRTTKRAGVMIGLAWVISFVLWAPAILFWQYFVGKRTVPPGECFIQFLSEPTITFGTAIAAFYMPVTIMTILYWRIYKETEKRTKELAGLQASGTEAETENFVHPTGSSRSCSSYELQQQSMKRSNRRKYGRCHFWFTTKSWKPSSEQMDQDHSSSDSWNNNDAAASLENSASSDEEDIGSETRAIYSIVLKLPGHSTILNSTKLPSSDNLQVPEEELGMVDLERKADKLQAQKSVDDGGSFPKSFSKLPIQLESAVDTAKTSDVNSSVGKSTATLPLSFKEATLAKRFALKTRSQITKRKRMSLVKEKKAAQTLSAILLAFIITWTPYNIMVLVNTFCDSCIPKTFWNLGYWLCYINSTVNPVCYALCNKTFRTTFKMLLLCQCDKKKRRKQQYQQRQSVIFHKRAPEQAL

Dopamine D1 = Dopamine D1 (Homo sapiens, UniProt P21728); conditions: read-out: Ki (nM) or % inhibition at 10 µM: D1
Sequence of Dopamine D1 (P21728 whole entry): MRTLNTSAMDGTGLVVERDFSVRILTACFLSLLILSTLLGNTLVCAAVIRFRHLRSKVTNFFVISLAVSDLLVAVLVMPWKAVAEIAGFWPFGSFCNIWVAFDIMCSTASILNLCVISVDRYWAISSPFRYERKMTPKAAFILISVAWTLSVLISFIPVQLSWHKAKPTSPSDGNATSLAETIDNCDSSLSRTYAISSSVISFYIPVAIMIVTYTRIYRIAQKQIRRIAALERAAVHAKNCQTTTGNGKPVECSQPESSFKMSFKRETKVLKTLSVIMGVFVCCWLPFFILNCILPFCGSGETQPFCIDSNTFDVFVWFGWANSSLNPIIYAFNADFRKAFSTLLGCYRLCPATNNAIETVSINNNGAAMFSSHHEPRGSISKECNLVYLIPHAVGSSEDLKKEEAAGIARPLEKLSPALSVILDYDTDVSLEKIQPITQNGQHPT

Histamine H1 = Histamine H1 (Homo sapiens, UniProt P35367)
Sequence of Histamine H1 (P35367 whole entry): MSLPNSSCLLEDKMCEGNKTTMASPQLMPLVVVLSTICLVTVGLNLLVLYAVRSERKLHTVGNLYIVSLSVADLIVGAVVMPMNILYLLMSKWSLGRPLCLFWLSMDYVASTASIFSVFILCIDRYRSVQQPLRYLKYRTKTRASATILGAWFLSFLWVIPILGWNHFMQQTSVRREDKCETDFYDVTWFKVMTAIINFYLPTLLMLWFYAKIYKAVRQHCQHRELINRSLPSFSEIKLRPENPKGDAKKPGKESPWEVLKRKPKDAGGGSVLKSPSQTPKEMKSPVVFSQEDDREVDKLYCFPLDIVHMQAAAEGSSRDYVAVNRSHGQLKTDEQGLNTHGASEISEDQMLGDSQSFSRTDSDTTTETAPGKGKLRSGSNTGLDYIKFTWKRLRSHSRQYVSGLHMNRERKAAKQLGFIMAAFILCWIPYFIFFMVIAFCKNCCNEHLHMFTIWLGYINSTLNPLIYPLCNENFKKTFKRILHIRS

[1] = target: Benzodiazepine receptor (PBR) (Rattus norvegicus, UniProt P16257); conditions: for Ki (nM) or % inhibition at 10 µM: Benzodiazepine receptor (PBR): PDSP, HCl salts
Adrenergic alpha1B = target: T3, Adrenergic alpha1B (Homo sapiens, UniProt P35368); conditions: for inhibition at 10 µM: read-out: Ki (nM) or % inhibition at 10 µM: alpha1B
T3 sequence (P35368 1-520): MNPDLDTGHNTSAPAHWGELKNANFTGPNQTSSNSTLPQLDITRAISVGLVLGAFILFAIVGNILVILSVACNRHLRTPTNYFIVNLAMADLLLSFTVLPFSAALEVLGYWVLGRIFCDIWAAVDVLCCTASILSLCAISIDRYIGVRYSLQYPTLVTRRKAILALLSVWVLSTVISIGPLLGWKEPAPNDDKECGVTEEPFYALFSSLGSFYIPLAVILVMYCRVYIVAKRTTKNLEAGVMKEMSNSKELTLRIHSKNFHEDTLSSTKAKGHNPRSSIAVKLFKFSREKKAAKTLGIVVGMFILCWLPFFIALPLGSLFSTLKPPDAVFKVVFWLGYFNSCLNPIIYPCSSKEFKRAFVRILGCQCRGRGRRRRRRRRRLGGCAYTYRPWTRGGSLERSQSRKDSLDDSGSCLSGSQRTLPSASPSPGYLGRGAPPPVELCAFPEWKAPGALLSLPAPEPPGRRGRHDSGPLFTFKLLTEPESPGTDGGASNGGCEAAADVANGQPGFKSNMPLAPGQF

Adrenergic alpha1A = target: T4, Adrenergic alpha1A (Homo sapiens, UniProt P35348); conditions: read-out: Ki (nM) or % inhibition at 10 µM: alpha1A
T4 sequence (P35348 1-466): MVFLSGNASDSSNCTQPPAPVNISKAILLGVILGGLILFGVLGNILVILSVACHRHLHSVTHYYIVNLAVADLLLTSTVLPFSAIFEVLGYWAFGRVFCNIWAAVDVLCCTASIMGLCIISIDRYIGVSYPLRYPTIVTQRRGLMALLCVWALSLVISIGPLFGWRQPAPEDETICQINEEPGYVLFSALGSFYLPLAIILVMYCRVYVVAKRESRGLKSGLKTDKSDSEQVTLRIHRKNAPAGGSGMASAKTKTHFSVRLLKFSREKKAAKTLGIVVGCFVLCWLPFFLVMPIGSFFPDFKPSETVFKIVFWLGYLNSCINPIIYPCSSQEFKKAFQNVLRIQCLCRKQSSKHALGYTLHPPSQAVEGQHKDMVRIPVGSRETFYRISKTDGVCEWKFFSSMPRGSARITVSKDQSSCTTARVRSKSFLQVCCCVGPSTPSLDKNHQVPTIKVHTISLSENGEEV

Adrenergic alpha2C = target: T5, Adrenergic alpha2C (Homo sapiens, UniProt P18825)
T5 sequence (P18825 1-462): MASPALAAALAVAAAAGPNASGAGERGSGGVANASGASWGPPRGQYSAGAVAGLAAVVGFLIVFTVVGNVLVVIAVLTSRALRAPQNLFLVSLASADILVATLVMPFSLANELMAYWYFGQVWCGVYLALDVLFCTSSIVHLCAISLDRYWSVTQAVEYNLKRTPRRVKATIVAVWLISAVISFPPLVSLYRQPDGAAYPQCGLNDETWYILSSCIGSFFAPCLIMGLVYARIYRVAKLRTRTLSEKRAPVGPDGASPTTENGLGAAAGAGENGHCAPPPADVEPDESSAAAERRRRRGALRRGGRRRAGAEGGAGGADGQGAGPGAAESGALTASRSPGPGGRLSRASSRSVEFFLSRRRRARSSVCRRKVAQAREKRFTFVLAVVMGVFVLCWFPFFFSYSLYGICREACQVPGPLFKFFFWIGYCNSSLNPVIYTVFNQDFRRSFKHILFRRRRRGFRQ

Row | Structure (SMILES) | Ki (nM) or % inhibition at 10 µM: GABAA (GABAA) | Ki (Adrenergic alpha2B) [nM] | Ki (Adrenergic alpha2A) [nM] | Ki (nM) or % inhibition at 10 µM: BZP Rat Brain Site (BZP Rat Brain Site) | Ki (Muscarinic M3) [nM] | inhibition at 10 µM (Dopamine D1) [%] | Ki (Histamine H1) [nM] | Ki [1] [nM] | Ki (nM) or % inhibition at 10 µM: Benzodiazepine receptor (PBR) [1] | Ki (Adrenergic alpha1B) [nM] | inhibition at 10 µM (Adrenergic alpha1A) [%] | Ki (Adrenergic alpha2C) [nM] | inhibition at 10 µM (Muscarinic M3) [%] | inhibition at 10 µM ([1]; read-out: Ki (nM) or % inhibition at 10 µM: Benzodiazepine receptor (PBR)) [%] | inhibition at 10 µM (Adrenergic alpha1B) [%]
1 | CCN(CCCNC(=O)c1ccc2ccccc2c1)CCNC(=O)c1cc(Br)cc(OC)c1OC [21a, N-(3-((2-(5-Bromo-2,3-dimethoxybenzamido)ethyl)(ethyl)amino)propyl)-2-naphthamide] | N/A (N/A; not active means less than 50% inhibition that was obtained in primary binding assay at 10 µM of the compound) | 577 | 1970 | N/A (N/A; not active means less than 50% inhibition that was obtained in primary binding assay at 10 µM of the compound) | 1260 | < 50 | 1510 | 9 | relatively high affinity | 3940 | < 50 | 195 | – | – | –
2 | CCN(CCCNC(=O)c1cc2ccccc2[nH]1)CCNC(=O)c1cc(Br)cc(OC)c1OC [21d, N-(3-((2-(5-Bromo-2,3-dimethoxybenzamido)ethyl)(ethyl)amino)propyl)-1H-indole-2-carboxamide] | N/A (N/A; not active means less than 50% inhibition that was obtained in primary binding assay at 10 µM of the compound) | 386 | 2140 | N/A (N/A; not active means less than 50% inhibition that was obtained in primary binding assay at 10 µM of the compound) | – | < 50 | 0.95 | 1220 | – | > 10000 | < 50 | 532 | < 50 | – | –
3 | CCN(CCCNC(=O)c1ccsc1)CCNC(=O)c1cc(Br)cc(OC)c1OC [21i, N-(3-((2-(5-Bromo-2,3-dimethoxybenzamido)ethyl)(ethyl)amino)propyl)thiophen-e-3-carboxamide] | N/A (N/A; not active means less than 50% inhibition that was obtained in primary binding assay at 10 µM of the compound) | 2950 | 3340 | N/A (N/A; not active means less than 50% inhibition that was obtained in primary binding assay at 10 µM of the compound) | – | < 50 | 84 | – | relatively high affinity | – | < 50 | 1290 | < 50 | < 50 | < 50
4 | CCN(CCCNC(=O)c1cc2ccccc2n1C)CCNC(=O)c1cc(Br)cc(OC)c1OC [21j, N-(3-((2-(5-Bromo-2,3-dimethoxybenzamido)ethyl)(ethyl)amino)propyl)-1-methyl-1H-indole-2-carboxamide] | N/A (N/A; not active means less than 50% inhibition that was obtained in primary binding assay at 10 µM of the compound) | 646 | 3110 | N/A (N/A; not active means less than 50% inhibition that was obtained in primary binding assay at 10 µM of the compound) | – | < 50 | 1470 | 8 | – | – | < 50 | 183 | < 50 | – | < 50
